This note sets out measurements from patent US20080269251A1, “Substituted Pyrazinone Derivatives as Alpha2C-Adrenoreceptor Antagonists” (priority 2005, published 2008).

For assay [1], the target named is T1, human adrenergic-α2A receptor (Homo sapiens, UniProt P08913).
T1 construct: expressed in transfected cells; host or cells: CHO cells, stably transfected; membrane preparation
T1 sequence (P08913 1-465): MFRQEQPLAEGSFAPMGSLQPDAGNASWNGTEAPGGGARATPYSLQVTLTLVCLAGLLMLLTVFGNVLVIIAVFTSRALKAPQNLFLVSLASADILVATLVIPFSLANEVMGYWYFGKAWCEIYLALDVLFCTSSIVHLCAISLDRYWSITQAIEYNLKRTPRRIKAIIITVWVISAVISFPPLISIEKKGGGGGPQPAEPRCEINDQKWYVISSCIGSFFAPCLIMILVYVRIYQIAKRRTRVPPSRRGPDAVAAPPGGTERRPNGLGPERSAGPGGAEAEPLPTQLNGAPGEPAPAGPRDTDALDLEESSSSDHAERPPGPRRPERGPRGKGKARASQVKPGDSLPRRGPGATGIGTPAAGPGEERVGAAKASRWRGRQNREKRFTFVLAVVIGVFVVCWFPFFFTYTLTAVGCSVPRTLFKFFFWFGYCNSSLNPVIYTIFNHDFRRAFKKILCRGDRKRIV
In words: Radioligand binding experiment for hα2A-adrenergic receptor ([3H]raulwolscine). The settings on record: [3H]raulwolscine 1 nM, 60 minutes at 25° C.; for IC50: read-out: h-α2A pIC50 (converted). Summed up:
(§1)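 CHO membranes expressing human α2A or α2C receptors were incubated with 1 nM [^3H]raulwolscine for 60 min at 25° C in glycylglycine 25 mM, pH 8.0, then filtered. Nonspecific binding was defined with 1 μM oxymetazoline for α2A and 1 μM spiroxatrine for α2C. pIC50 came from sigmoidal competition curves.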

Assay [2] deals with T2, human adrenergic-α2C receptor (Homo sapiens, UniProt P18825).
T2 construct: expressed in transfected cells; host or cells: CHO cells, stably transfected; membrane preparation
T2 sequence (P18825 1-462): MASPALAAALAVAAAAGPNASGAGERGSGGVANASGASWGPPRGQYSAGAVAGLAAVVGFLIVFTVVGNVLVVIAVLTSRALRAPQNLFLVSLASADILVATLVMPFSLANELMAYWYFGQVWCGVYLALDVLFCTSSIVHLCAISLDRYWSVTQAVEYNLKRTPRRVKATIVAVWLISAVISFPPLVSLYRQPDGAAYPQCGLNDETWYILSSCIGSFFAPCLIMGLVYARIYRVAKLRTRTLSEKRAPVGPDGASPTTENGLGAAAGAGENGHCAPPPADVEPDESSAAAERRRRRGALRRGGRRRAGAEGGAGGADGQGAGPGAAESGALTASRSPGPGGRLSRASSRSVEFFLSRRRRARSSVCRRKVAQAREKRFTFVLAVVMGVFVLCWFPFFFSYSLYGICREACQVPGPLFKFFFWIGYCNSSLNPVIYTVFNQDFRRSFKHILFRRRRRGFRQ
Briefly: Radioligand binding experiment for hα2C-adrenoceptor ([3H]raulwolscine). The settings on record: [3H]raulwolscine 1 nM, 60 minutes at 25° C.; for IC50: read-out: h-α2C pIC50 (converted). Put shortly: as §1

Another assay addresses T3, 5HT-transporter (Homo sapiens, UniProt P31645).
T3 construct: Human platelet membranes (Oceanix Biosciences Corporation, Hanover, Md., USA) were thawed; tissue Oceanix Biosciences Corporation, Hanover, Md., USA; host or cells: human platelet membranes
Briefly: Binding experiment for the 5HT-transporter ([3H]paroxetine, human platelet membranes). The settings on record: [3H]paroxetine 0.5 nM, 60 min at 25° C.; for IC50: read-out: h-5HTT pIC50 (converted). Summed up: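 Competition binding of [3H]paroxetine to human platelet membranes in Tris-HCl 50 mM with 120 mM NaCl and 5 mM KCl; bound radioligand separated by GF/B filtration and counted.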

T3 sequence (P31645 whole entry): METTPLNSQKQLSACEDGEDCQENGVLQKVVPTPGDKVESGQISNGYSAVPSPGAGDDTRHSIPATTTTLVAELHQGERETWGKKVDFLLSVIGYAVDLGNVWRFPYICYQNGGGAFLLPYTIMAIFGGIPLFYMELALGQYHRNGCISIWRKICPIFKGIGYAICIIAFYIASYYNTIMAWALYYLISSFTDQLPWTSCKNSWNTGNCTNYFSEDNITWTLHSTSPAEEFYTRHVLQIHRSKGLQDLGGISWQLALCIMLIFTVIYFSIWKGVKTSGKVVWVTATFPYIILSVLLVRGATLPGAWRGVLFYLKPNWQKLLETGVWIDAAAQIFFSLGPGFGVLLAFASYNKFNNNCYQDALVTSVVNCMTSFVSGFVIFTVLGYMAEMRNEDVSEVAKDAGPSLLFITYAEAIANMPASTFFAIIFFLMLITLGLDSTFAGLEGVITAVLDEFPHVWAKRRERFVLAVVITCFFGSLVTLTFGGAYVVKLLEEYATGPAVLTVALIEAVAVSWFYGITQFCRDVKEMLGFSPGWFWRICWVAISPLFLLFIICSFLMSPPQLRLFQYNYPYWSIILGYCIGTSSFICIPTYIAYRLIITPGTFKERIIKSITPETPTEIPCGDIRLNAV

Consider `O=c1c(NC2CCN(Cc3ccc4ccccc4c3)CC2)nccn1-c1ccc(CNCc2ccco2)cc1` [1-82], for which the IC50 is 0.158 µM in assay [1], 0.0126 µM in assay [2] and 0.00501 µM at 5HT-transporter.
Consider `Cc1ccc(CNCc2ccc(-n3ccnc(NC4CCN(Cc5ccc6ccccc6c5)CC4)c3=O)cc2)o1.Cl.Cl` [1-83], for which, in assay [1], the “h-α2A pIC50” value is 6.7. In assay [2], the “h-α2C pIC50” value was found to be 7.6. In addition, the “h-5HTT pIC50” value on 5HT-transporter stood at 8.3.
`Cc1ccc(CNCc2ccc(-n3ccnc(NC4CCN(Cc5ccc6ccccc6c5)CC4)c3=O)cc2F)o1` [1-84]: the IC50 is 0.2 µM in assay [1], 0.01 µM in assay [2] and 0.00316 µM at 5HT-transporter.
On to `Cc1ccc(CN(Cc2ccc(-n3ccnc(NC4CCN(Cc5ccc6ccccc6c5)CC4)c3=O)cc2)Cc2ccc(C)o2)o1` [1-85], for which the IC50 was 0.794 µM in assay [1], 0.0794 µM in assay [2] and 0.0316 µM at 5HT-transporter.
Take `Cc1cc(CNC(=O)c2ccc(-n3ccnc(NC4CCN(Cc5ccc6ccccc6c5)CC4)c3=O)cc2)no1` [1-86]: the IC50 in assay [1] is 0.251 µM; in assay [2], 0.0251 µM; on 5HT-transporter, 0.0251 µM.
For `Cc1cc(CNCc2ccc(-n3ccnc(NC4CCN(Cc5ccc6ccccc6c5)CC4)c3=O)cc2F)no1` [1-87], the IC50 in assay [1] is 0.251 µM; in assay [2], 0.0126 µM; at 5HT-transporter, 0.0126 µM.
As to `O=c1c(NC2CCN(Cc3ccc4ccccc4c3)CC2)nccn1-c1ccc(NCCN2CCC(F)CC2)cc1` [1-89], the IC50 was 0.2 µM in assay [1], 0.0126 µM in assay [2] and 0.0158 µM on 5HT-transporter.
Consider `O=c1c(NC2CCN(Cc3ccc4ccccc4c3)CC2)nccn1-c1ccc(CNCc2ccccn2)cc1` [1-90], for which the IC50 was 0.251 µM in assay [1], 0.0126 µM in assay [2] and 0.00794 µM on 5HT-transporter.
Regarding `O=c1c(NC2CCN(Cc3ccc4ccccc4c3)CC2)nccn1-c1ccc(CNCCN2CCOCC2)cc1` [1-93], the values for the IC50 (in assay [1]; in assay [2]; on 5HT-transporter) were 0.316 µM, 0.02 µM and 0.0158 µM, respectively.
In the case of `O=C(Cn1ccnc(NC2CCN(Cc3ccc4ccccc4c3)CC2)c1=O)NCCN1CCOCC1` [1-94], the IC50 in assay [1] is 0.631 µM; in assay [2], 0.0501 µM; on 5HT-transporter, 2 µM.
For the molecule `O=C(Cc1ccsc1)NCc1ccc(-n2ccnc(NC3CCN(Cc4ccc5ccccc5c4)CC3)c2=O)cc1` [1-95], the values for the IC50 (in assay [1]; in assay [2]; at 5HT-transporter) were 0.398 µM, 0.02 µM and 0.00631 µM, respectively.
Take `Cl.O=C(CCN1CCC(F)CC1)NCc1ccc(-n2ccnc(NC3CCN(Cc4ccc5ccccc5c4)CC3)c2=O)cc1F` [1-96]: the “h-α2A pIC50” value in assay [1] is 7.1. Besides, the “h-α2C pIC50” value in assay [2] stood at 8.3. Moreover, the “h-5HTT pIC50” value on 5HT-transporter is 8.0.
Turning to `O=C(NCc1ccc(-n2ccnc(NC3CCN(Cc4ccc5ccccc5c4)CC3)c2=O)cc1)c1ccno1` [1-100], the IC50 in assay [1] is 0.501 µM; in assay [2], 0.00398 µM; at 5HT-transporter it was 0.0126 µM.
For the molecule `O=C(NCc1ccc(-n2ccnc(NC3CCN(Cc4ccc5ccccc5c4)CC3)c2=O)cc1)c1ccncc1` [1-101], the IC50 in assay [1] is 0.501 µM; in assay [2] it was 0.0251 µM; at 5HT-transporter, 0.00631 µM.
On the same counts, the results for `O=C(CNCCCn1ccnc(NC2CCN(Cc3ccc4ccccc4c3)CC2)c1=O)c1coc2ccccc12` [1-103] are 0.631 µM, 0.0316 µM and 0.158 µM.
With `O=C(Cn1ccnc(NC2CCN(Cc3ccc4ccccc4c3)CC2)c1=O)N(Cc1ccccc1)c1ccccc1` [1-104], the values for the IC50 (in assay [1]; in assay [2]; at 5HT-transporter) were 0.2 µM, 0.02 µM and 0.126 µM, respectively.
As to `O=C1CCCN1Cc1ccc(-n2ccnc(NC3CCN(Cc4ccc5ccccc5c4)CC3)c2=O)cc1` [2-01], the IC50 is 0.251 µM in assay [1], 0.0316 µM in assay [2] and 0.02 µM on 5HT-transporter.
Regarding `CN1CCN(Cc2ccc(-n3ccnc(NC4CCN(Cc5ccc6ccccc6c5)CC4)c3=O)cc2)CC1` [2-02], in assay [1], the “h-α2A pIC50” value is reported as 6.9. Moreover, in assay [2], the “h-α2C pIC50” value is reported as 7.8. For the same molecule, the “h-5HTT pIC50” value at 5HT-transporter came to 8.3.
As for `CN1CCN(c2ccc(-n3ccnc(NC4CCN(Cc5ccc6ccccc6c5)CC4)c3=O)cc2)CC1` [2-03], the figures for the IC50 (in assay [1]; in assay [2]; at 5HT-transporter) were 0.1 µM, 0.0251 µM and 0.0126 µM, respectively.
The corresponding values for `O=C1CN(Cc2ccc(-n3ccnc(NC4CCN(Cc5ccc6ccccc6c5)CC4)c3=O)cc2)CCN1` [2-04] are 0.126 µM, 0.0251 µM and 0.0316 µM.
On the same counts, the results for `O=C(Cn1ccnc(NC2CCN(Cc3ccc4ccccc4c3)CC2)c1=O)N1CCN(c2ccccc2)CC1` [2-05] are 0.251 µM, 0.0398 µM and 0.2 µM.
With `O=C(Cn1ccnc(NC2CCN(Cc3ccc4ccccc4c3)CC2)c1=O)N1CCN(Cc2ccccc2)CC1` [2-06], the IC50 in assay [1] is 0.398 µM; in assay [2] it was 0.00794 µM; at 5HT-transporter, 0.316 µM.
For `Cc1ccc(N2CCN(C(=O)Cn3ccnc(NC4CCN(Cc5ccc6ccccc6c5)CC4)c3=O)CC2)cc1C` [2-07], the results for the IC50 (in assay [1]; in assay [2]; on 5HT-transporter) were 0.398 µM, 0.0794 µM and 0.0631 µM, respectively.
With `O=c1c(NC2CCN(Cc3ccc4ccccc4c3)CC2)nccn1CCN1CCOCC1` [2-09], the figures for the IC50 (in assay [1]; in assay [2]; at 5HT-transporter) were 1 µM, 0.158 µM and 0.501 µM, respectively.
The corresponding values for `O=c1c(NC2CCN(Cc3ccc4ccccc4c3)CC2)nccn1-c1ccc(CN2CCCCC2)cc1` [2-11] are 0.2 µM, 0.01 µM and 0.00794 µM.
Take `O=c1c(NC2CCN(Cc3ccc4ccccc4c3)CC2)nccn1-c1ccc(CN2CCC(F)CC2)cc1` [2-12]: the “h-α2A pIC50” value in assay [1] is on record as 7.3. Also, the “h-α2C pIC50” value in assay [2] came out at 8.1. Moreover, on 5HT-transporter, the “h-5HTT pIC50” value stood at 8.4.
As for `O=c1c(NC2CCN(Cc3ccc4ccccc4c3)CC2)nccn1-c1ccc(CN2CCC(F)CC2)c(F)c1` [2-13], the figures for the IC50 (in assay [1]; in assay [2]; at 5HT-transporter) were 0.0631 µM, 0.00398 µM and 0.00631 µM, respectively.
With `O=c1c(NC2CCN(Cc3ccc4ccccc4c3)CC2)nccn1-c1ccc(CN2CCC(O)CC2)cc1` [2-14], the results for the IC50 (in assay [1]; in assay [2]; on 5HT-transporter) were 0.158 µM, 0.01 µM and 0.00501 µM, respectively.
On the same counts, the results for `O=C(Cn1ccnc(NC2CCN(Cc3ccc4ccccc4c3)CC2)c1=O)N1CCC(Cc2ccccc2)CC1` [2-15] are 0.251 µM, 0.0316 µM and 0.2 µM.
Turning to `O=C(Cn1ccnc(NC2CCN(Cc3ccc4ccccc4c3)CC2)c1=O)N1CCC(C(F)(F)F)CC1` [2-16], the IC50 was 0.501 µM in assay [1], 0.126 µM in assay [2] and 1.26 µM at 5HT-transporter.
With `O=c1c(NC2CCN(Cc3ccc4ccccc4c3)CC2)nccn1-c1ccc(CN2CCC(Oc3cccnc3)CC2)cc1` [2-17], the “h-α2A pIC50” value in assay [1] is 6.6. Further, the “h-α2C pIC50” value in assay [2] is 8.2. The “h-5HTT pIC50” value at 5HT-transporter was found to be 8.6.
Take `O=c1c(NC2CCN(Cc3ccc4ccccc4c3)CC2)nccn1CCO` [3-01]: the results for the IC50 (in assay [1]; in assay [2]; at 5HT-transporter) were 0.251 µM, 0.0251 µM and 0.1 µM, respectively.
Take `O=c1c(NC2CCN(Cc3ccc4ccccc4c3)CC2)nccn1CCCO` [3-02]: the IC50 in assay [1] was 0.631 µM; in assay [2], 0.1 µM; on 5HT-transporter, 0.2 µM.
On the same counts, the results for `O=c1c(NC2CCN(Cc3ccc4ccccc4c3)CC2)nccn1CCCCO` [3-03] are 0.398 µM, 0.0631 µM and 0.158 µM.
On the same counts, the results for `COC(=O)CCn1ccnc(NC2CCN(Cc3ccc4ccccc4c3)CC2)c1=O` [3-04] are 1 µM, 0.0794 µM and 0.398 µM.
The corresponding values for `CCOC(=O)CCCn1ccnc(NC2CCN(Cc3ccc4ccccc4c3)CC2)c1=O` [3-06] are 0.2 µM, 0.0631 µM and 0.0794 µM.
